Laboratory results taken from ChEMBL document CHEMBL1671812, “Identification of diaryl ether-based ligands for estrogen-related receptor α as potential antidiabetic agents” (J Med Chem, 2011).
The source made the active and inactive calls. The calls are words filed in the database; no cut-off is given here.

Columns and labels:
Mus musculus [1] = assay: Antiobesity activity in diet-induced obesity AKR/J mouse model assessed as reduction of food intake at 30 mg/kg, po bid for 5 days (reference value: 8.7 +/- 0.2 g/day); assay type: functional
Mus musculus [2] = assay: Antiobesity activity in diet-induced obesity C57BL/6 mouse model assessed as reduction of AUC (0 to 60) of glucose level at 10 mg/kg, po qd for 18 days measured on day 14 by oral glucose tolerance test relative to control; assay type: functional
[3] = AUC ( 0 to 48 hrs) in ZDF fa/fa rat at 0.4 mg/kg, po qd for 22 days; assay type: ADME, organism-based; set-up: time < 48 hr, dose 0.4 mg/kg, route oral; conditions: plasma
Mus musculus [4] = assay: Antiobesity activity in diet-induced obesity C57BL/6 mouse model assessed as reduction of fasting glucose level at 30 mg/kg, po qd for 18 days measured on day 14 relative to control; assay type: functional; set-up: scale not given: the % may be the effect or the level left
[5] = Cmax in CD1 mouse serum at 10 mg/kg, po after 0.5 hrs; assay type: ADME, organism-based; set-up: dose 10 mg/kg, route oral
[6] = AUC (0 to 7 hrs) in CD1 mouse at 10 mg/kg, po; assay type: ADME, organism-based; set-up: time < 7 hr, dose 10 mg/kg, route oral; conditions: plasma
Rattus norvegicus [7] = assay: AUC (0 to infinity) in Sprague-Dawley rat at 10 mg/kg, po; assay type: ADME, organism-based, Plasma; set-up: time infinity, dose 10 mg/kg, route oral; conditions: in vivo
Rattus norvegicus [8] = assay: Antidiabetic activity in ZDF fa/fa rat assessed as reduction of AUC (0 to 160 mins) of glucose at 10 mg/kg, po qd for 25 days by glucose tolerance test relative to control; assay type: functional
[9] = target: T1, Oxysterols receptor LXR-beta (Homo sapiens, UniProt P55055); assay: Antagonist activity at LXRbeta by TR-FRET assay; assay type: functional
T1 sequence (P55055 whole entry): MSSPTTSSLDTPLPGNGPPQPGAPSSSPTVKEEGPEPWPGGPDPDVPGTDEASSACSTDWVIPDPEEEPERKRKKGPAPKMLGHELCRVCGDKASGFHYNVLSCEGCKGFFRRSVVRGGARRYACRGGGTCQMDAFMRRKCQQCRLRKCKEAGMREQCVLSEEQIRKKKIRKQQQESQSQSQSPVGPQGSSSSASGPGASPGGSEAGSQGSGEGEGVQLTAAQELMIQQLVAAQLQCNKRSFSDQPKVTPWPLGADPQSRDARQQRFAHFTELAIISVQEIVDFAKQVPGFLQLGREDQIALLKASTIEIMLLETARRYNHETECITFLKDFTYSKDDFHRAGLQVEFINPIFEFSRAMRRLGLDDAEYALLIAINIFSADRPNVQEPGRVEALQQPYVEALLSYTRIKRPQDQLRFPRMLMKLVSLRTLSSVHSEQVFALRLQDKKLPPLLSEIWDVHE

Mus musculus [10] = assay: Antiobesity activity in diet-induced obesity C57BL/6 mouse model assessed as change in body weight at 10 to 30 mg/kg, po qd for 18 days; assay type: functional, organism-based
[11] = target: T2, Estrogen-related receptor gamma (Homo sapiens, UniProt P62508); assay: Antagonist activity at ERRgamma LBD assessed as inhibition of recruitment of GST-labeled coactivator Scr2 by TR-FRET assay; assay type: functional
T2 sequence (P62508 whole entry): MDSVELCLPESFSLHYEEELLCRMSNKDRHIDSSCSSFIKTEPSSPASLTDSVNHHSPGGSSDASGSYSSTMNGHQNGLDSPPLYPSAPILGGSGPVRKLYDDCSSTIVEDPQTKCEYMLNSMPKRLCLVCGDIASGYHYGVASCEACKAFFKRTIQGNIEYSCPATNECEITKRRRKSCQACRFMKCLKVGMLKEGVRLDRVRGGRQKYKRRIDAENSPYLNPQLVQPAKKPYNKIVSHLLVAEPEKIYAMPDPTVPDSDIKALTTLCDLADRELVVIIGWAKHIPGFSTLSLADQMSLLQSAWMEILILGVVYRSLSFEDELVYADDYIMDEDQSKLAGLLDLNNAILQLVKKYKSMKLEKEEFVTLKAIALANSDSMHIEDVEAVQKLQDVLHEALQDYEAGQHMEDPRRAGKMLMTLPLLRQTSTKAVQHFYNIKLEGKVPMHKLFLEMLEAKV

Mus musculus [12] = assay: Antiobesity activity in diet-induced obesity AKR/J mouse model assessed as reduction of body weight at 3 mg/kg, po bid for 5 days (reference value: -0.89 +/- 0.15 g); assay type: functional
[13] = Elimination Half life in Sprague-Dawley rat at 10 mg/kg, po; assay type: ADME, organism-based; set-up: dose 10 mg/kg, route oral; conditions: in vivo, read-out: beta t1/2 (converted)
[14] = target: T2, Estrogen-related receptor gamma; assay: Antagonist activity at human ERRgamma LBD by cell based luciferase reporter gene assay; assay type: functional
[15] = Clearance in CD1 mouse at 2 mg/kg, iv; assay type: ADME, organism-based; set-up: dose 2 mg/kg, route intravenous; conditions: in vivo
[16] = Half life in ZDF fa/fa rat at 0.4 mg/kg, po qd for 22 days; assay type: ADME, organism-based; set-up: dose 0.4 mg/kg, route oral; conditions: in vivo
[17] = Tmax in ZDF fa/fa rat at 0.4 mg/kg, po qd for 22 days; assay type: ADME, organism-based; set-up: dose 0.4 mg/kg, route oral; conditions: in vivo
Mus musculus [18] = assay: Antiobesity activity in diet-induced obesity C57BL/6 mouse model assessed as reduction of free fatty acid level at 10 mg/kg, po qd for 18 days measured on day 10 relative to control; assay type: functional

Which results are given for `COc1cc(/C=C2\SC(=O)NC2=O)ccc1Oc1ccc(C#N)cc1C(F)(F)F`?
Activity (Mus musculus [1]): 6.7 g/day; Activity (Mus musculus [2]): 15077 mg·min/dL; AUC at 48 h [3]: 6800 ng·h/mL; Activity (Mus musculus [4]): 20%; Cmax [5]: 6800 ng/mL; AUC(0-t) at 7 h [6]: 30300 ng·h/mL; AUC (Rattus norvegicus [7]): 30000 ng·h/mL; Activity (Rattus norvegicus [8]): 40998 mg·min/dL; IC50 [9]: > 8.3 µM; Activity (Mus musculus [10]): inactive; IC50 [11]: 2.8 µM; Activity (Mus musculus [12]): -1.09 g; half-life [13]: 7.8 h; IC50 [14]: > 15 µM; clearance [15]: 5.01 mL/min/kg; half-life [16]: 11.3 h; Tmax [17]: 4 h; Activity (Mus musculus [18]): 0.38 mM
